# Results taken from a melting point compilation (Tetko et al.; mined from patent text by program, amines drawn as free bases though some values may be those of a salt).
row,Structure (SMILES),melting point [°C]
1,COc1cccc(CC(=O)O)c1OCCCc1cn(-c2ccc(Cl)cn2)nc1C(C)(C)C,87 to 88
2,COC(=O)Nc1cc(=O)[nH]c(N)n1,186 to 188
3,COC(=O)c1ccccc1NC(=O)c1ccc(OC)cc1,122 to 124
4,NS(=O)(=O)Nc1cccc(-c2cccc(-c3nc(-c4ccc(C(F)(F)F)cc4)cc(C(F)(F)F)n3)c2)c1,174
5,CC(=O)c1c(C)[nH]c(-c2ccccc2)c1N=Cc1ccc(Cl)cc1,214 to 215
6,Cc1onc(-c2ccccc2)c1-c1ccc(S(N)(=O)=O)cc1,171 to 174
7,O=C1NC(=O)c2cc(Nc3ccc(O)c(O)c3)c(Nc3ccccc3)cc21,204 to 205
8,CCN(CC)CCNC(=O)c1cccc2c(=O)c(C)c(-c3ccc(OC)cc3)oc12,126 to 127
9,CC(Cn1cc[nH]c1=NC#N)c1ccc(OC(F)F)c(OC2CCOC2)c1 (configuration not stated),67.8
10,Cc1cc(-n2ccnc2)c2cccc(OCc3c(Cl)ccc(S(=O)(=O)N4CCC[C@H]4C(=O)NCC4CCN(C(=O)c5ccccc5)CC4)c3Cl)c2n1,102
11,C#CCn1ccc(C(=O)OC)c1C=NO,88 to 90
12,CC(C)c1ccc(-c2nnc(-c3ccc(C(=O)O)cc3)s2)cc1,> 300
13,COc1ccc(C[C@@H]2COc3ccc(OCc4nc5cc(F)ccc5s4)cc3[C@@H]2O)cc1C(=O)O (relative stereo),149 to 151
14,CCOC(=O)C1=C(C)NC(CSc2ncccn2)=C(C(=O)OCC)C1c1cccc([N+](=O)[O-])c1 (configuration not stated),115 to 117
15,COC(=O)c1ccccc1N(C)C(=O)CBr,80 to 82
16,CC(C)(C)c1cc(-c2nn(CCCO)c3ncccc23)cc(C(C)(C)C)c1O,143 to 144
17,CC(O)c1c[nH]c(-c2ccccc2)n1 (configuration not stated),197 to 198
18,Cc1sc(N)nc1-c1ccc2c(c1)CC(=O)N2,> 250
19,O=C(O)C1C=Nc2c(ccc3ncccc23)N1O (configuration not stated),> 300
20,CC(C)c1cc(O)cc(C(C)C)c1,51 to 52
21,CCS(=O)(=O)c1ccc(I)cc1,78 to 79
22,COc1cc2ncc(C#N)c(Nc3ccc4[nH]c(C)nc4c3)c2cc1OC,207
23,CCC1(CC)C(=O)c2cc(OCC(=O)O)c(C)c(C)c2C1=O,134 to 136
24,Cn1nc(-c2ccc(F)cc2)c(-c2ccc(S(C)(=O)=O)cc2)cc1=O,181 to 182

row,Structure (SMILES),melting point [°C]
1,O=C(Cc1ncccn1)c1ccc(F)cc1F,86 to 88
2,CC(C)Oc1ccc(-c2nn(C(C)c3oc4cccc(N5CCOCC5)c4c(=O)c3-c3cccc(F)c3)c3ncnc(N)c23)cc1F (configuration not stated),227 to 229
3,NC(=O)OCC(OC(N)=O)c1ccccc1Cl (configuration not stated),167 to 169
4,O=[N+]([O-])c1ccc(N2CCN(Cc3ccccc3)S2(=O)=O)cc1,164 to 165
5,CC(=O)NCc1cccc(CCCOCCCCCCNCC(O)c2cc(Cl)c(N)c(Cl)c2)c1 (configuration not stated),91 to 94
6,COc1ccc(N2CCN(Cc3coc4ccccc34)CC2)cc1,110 to 112
7,OCc1cnc(-c2cccs2)s1,89 to 90
8,COc1ccc(N2CCN(C(=O)CC3CCCc4ccccc43)CC2)cc1 (configuration not stated),133 to 134
9,O=C(Nc1ccc(Br)cc1)Nn1cnc2c(O)cccc2c1=O,276 to 278
10,CNC(=O)c1nc(-c2cccnc2)nc2c1[nH]c(=O)n2-c1ccccc1,> 330
11,COc1cccc(Nc2nc(N)nc3[nH]c4ccccc4c23)c1,225 to 226
12,COC(=O)/C=C/c1c(-c2ccc(F)cc2)cccc1C(C)C,87 to 89
13,COc1ccc(Nc2cc3c(cc2Nc2ccc(OC)cc2)C(=O)NC3=O)cc1,191 to 193
14,CC(C)(C)NC(=O)CN1C(=O)[C@@H](CNC(=O)Nc2cccc(Cl)c2)C[C@H](c2ccccc2)c2ccccc21,156 to 170
15,NS(=O)(=O)c1ccc(NC(=O)CCl)cc1C(F)(F)F,185 to 190
16,O=C(Cl)c1ccc(S(=O)(=O)NC(=O)c2ccccc2)cc1,180 to 182
17,O=C(CN1C(=O)CC1Sc1ccc(Cl)cc1)NCCCCCCc1ccccc1 (configuration not stated),52 to 54
18,COc1cccc(CNC(=O)c2nc3cccc(OCCO)c3c(=O)[nH]2)c1,173 to 174
19,CCSc1ccc(-c2cncnc2)c2c1C(=O)CC(C)C2 (configuration not stated),168 to 171
20,O=c1[nH]c2ccccc2cc1CC1CCc2ccccc2N1 (configuration not stated),196 to 199
21,Clc1ccc2c(Nc3ccccc3)ccnc2c1,207
22,c1cc(-c2cncnc2)cc(-n2cnc3cc(-n4cccc4)ccc32)c1,197 to 198
23,Cc1cc(-c2ccccc2)nn1C(C)C(=O)N(C)C (configuration not stated),98 to 99
24,Nc1nc2ccccc2c2c1nc(CF)n2CC1(O)CCOC1 (configuration not stated),169 to 171

row,Structure (SMILES),melting point [°C]
1,COCNC(=O)NC1CCCc2sccc21 (configuration not stated),160 to 162
2,COC(=O)c1cccc(N)n1,87
3,COc1cc(C(=O)NS(=O)(=O)c2ccccc2)cnc1C(=O)O,176 to 178
4,O=C(O)C1=CC(CF)(CF)Oc2ccc([N+](=O)[O-])cc21,171 to 172
5,CCCCc1oc2ccccc2c1C(=O)Nc1ccc2cc(OCc3nn[nH]n3)ccc2c1,194 to 198
6,CCCCOc1c(CNC(=O)OC(C)(C)C)n(CC(C)C)c(=O)c2ccc(-c3cccs3)cc12,130 to 131
7,O=C(O)C1CSC(Cc2ccccc2)N1 (mixture of isomers),200
8,COc1c(Cl)cc(N)cc1Cl,80 to 81
9,c1ccc(C2c3ccccc3-c3ncncc32)cc1 (configuration not stated),148 to 150
10,CCOC(=O)CN1C(=O)[C@@H](N)[C@H](c2ccccc2)Sc2ccccc21,176 to 178
11,Cc1oc(C2(C)CCCCC2)nc1CC#N,57 to 58
12,O=C(O)C1CCc2c(c3cccc(Br)c3n2C(=O)c2ccccc2)C1 (configuration not stated),196 to 198
13,COc1ccc2ccccc2c1-c1cc2c(c(-c3ccccc3)c1P(=O)(c1ccccc1)c1ccccc1)COC2,129 to 131
14,Clc1ccc(-c2cc3ccccc3s2)cc1,193 to 194
15,Cc1cc(-c2cc(COS(C)(=O)=O)c(=O)n(CC=Cc3ccccc3)n2)ccc1F,78.4 to 80.5
16,CCCC(=O)c1cnc2cc(COC(=O)c3ccccc3)ccc2c1Cl,66 to 68
17,CCOc1cccc(CNC(=O)[C@H]2N(C(=O)[C@@H](O)[C@H](Cc3ccccc3)NC(=O)c3cccc(O)c3C)CSC2(C)C)c1,105 to 107
18,NC(=O)c1nc(-c2cccc(O)c2)nc2c1[nH]c(=O)n2-c1ccccc1C(F)(F)F,363 to 365
19,N#CC(C(=O)C(F)(F)F)c1cccc(Cl)c1Cl (configuration not stated),74 to 75
20,NC(=O)c1sc2nccc(N3CCOCC3)c2c1N,232 to 234
21,CN1CC[C@@H](c2c(O)cc(O)c3c(=O)cc(-c4cccc(F)c4)oc23)[C@@H]1CO,218 to 220
22,OP(O)C(NC(c1ccccc1)c1ccccc1)c1cccs1 (configuration not stated),201
23,CN(C)CC=Cc1ccc2c(c1)CCCN2C(=O)c1ccc(-c2ccc(Cl)cc2)cc1,162 to 164
24,Cc1c(NC(=O)c2ccc(-c3ccc(F)cc3)cc2)ccc2cc(CN3CCCCC3)cnc12,188 to 190
